According to ChEMBL document CHEMBL1154287, “Phenylaminopyrimidines as inhibitors of Janus kinases (JAKs)” (Bioorg Med Chem Lett, 2009):

Experiments:
cells = settings: Mus musculus, CTLL-2, 72 h
Description: Antiproliferative activity against IL-2-stimulated mouse CTLL-2 cells expressing JAK1/JAK3 after 72 hrs by alamar blue assay

[1] = Tmax in Sprague-Dawley rat at 18 mg/kg, po; assay type: ADME, organism-based; set-up: dose 18 mg/kg, route oral; settings: in vivo
K562 = assay: cells; settings: Homo sapiens, K562, 72 h
Description: Antiproliferative activity against human K562 cells after 72 hrs by alamar blue assay

[2] = Apparent permeability from basolateral to apical side in human Caco-2 cells; assay type: ADME, cell-based
[3] = Antiproliferative activity against human SET2 cells expressing JAK2 V617F mutant kinase after 72 hrs by alamar blue assay; assay type: functional, cell-based; settings: SET-2, 72 h
[4] = Cmax in Sprague-Dawley rat at 18 mg/kg, po; assay type: ADME, organism-based; set-up: dose 18 mg/kg, route oral; settings: in vivo
BaF3 [5] = assay: cells; settings: Mus musculus, BaF3, 72 h
Description: Antiproliferative activity against mouse BAF3 cells expressing TEL-JAK2 kinase after 72 hrs by alamar blue assay

in vitro [6] = settings: human, Caco-2
Description: Apparent permeability from apical to basolateral side in human Caco-2 cells

[7] = Blood clearance in Sprague-Dawley rat at 18 mg/kg, po; assay type: ADME, organism-based; set-up: dose 18 mg/kg, route oral
BaF3 [8] = assay: Antiproliferative activity against mouse BAF3 cells expressing wild type JAK2 kinase after 72 hrs by alamar blue assay in presence of IL-3; assay type: functional, cell-based; settings: BaF3, 72 h
BaF3 [9] = assay: cells; settings: Mus musculus, BaF3, 72 h; remark: listed apart in the source
Description: Antiproliferative activity against mouse BAF3 cells expressing TEL-JAK3 kinase after 72 hrs by alamar blue assay

[10] = Apparent half life in Sprague-Dawley rat at 18 mg/kg, po; assay type: ADME, organism-based; set-up: dose 18 mg/kg, route oral; settings: in vivo
[11] = biological target: Tyrosine-protein kinase JAK2 (Homo sapiens, UniProt O60674)
Chain of Tyrosine-protein kinase JAK2 (O60674 whole entry): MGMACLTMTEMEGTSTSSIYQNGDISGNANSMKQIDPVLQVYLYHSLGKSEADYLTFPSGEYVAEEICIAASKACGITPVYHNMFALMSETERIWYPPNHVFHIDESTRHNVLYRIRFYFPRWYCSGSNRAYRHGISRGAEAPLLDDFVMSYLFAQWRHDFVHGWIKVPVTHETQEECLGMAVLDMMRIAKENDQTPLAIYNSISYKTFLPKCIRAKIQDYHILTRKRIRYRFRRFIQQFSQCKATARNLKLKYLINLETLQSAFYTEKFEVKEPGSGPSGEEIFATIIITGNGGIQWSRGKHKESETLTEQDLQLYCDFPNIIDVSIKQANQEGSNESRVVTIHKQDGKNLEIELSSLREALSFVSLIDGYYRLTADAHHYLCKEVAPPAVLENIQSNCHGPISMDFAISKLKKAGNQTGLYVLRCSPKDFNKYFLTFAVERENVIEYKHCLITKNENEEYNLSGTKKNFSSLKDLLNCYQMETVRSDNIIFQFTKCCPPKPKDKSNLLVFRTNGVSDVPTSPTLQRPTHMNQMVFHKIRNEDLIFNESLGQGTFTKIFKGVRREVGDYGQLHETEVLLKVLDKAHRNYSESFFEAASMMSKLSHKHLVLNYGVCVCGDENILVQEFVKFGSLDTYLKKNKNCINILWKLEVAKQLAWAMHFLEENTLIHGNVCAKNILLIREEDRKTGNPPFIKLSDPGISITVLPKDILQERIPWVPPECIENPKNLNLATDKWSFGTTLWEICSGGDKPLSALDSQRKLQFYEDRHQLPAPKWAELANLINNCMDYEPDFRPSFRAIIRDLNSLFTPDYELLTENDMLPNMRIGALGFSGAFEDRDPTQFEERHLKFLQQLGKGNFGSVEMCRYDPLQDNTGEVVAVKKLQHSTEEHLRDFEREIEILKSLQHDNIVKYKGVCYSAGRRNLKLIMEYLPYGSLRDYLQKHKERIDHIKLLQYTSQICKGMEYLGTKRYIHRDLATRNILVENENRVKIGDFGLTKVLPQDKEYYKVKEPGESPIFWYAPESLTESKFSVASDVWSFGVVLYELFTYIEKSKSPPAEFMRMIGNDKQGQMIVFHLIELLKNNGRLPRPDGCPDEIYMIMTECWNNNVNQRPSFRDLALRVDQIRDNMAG
Description: Inhibition of GST-tagged JAK2 kinase

[12] = biological target: T1, Tyrosine-protein kinase JAK3 (Homo sapiens, UniProt P52333)
T1 sequence (P52333 whole entry): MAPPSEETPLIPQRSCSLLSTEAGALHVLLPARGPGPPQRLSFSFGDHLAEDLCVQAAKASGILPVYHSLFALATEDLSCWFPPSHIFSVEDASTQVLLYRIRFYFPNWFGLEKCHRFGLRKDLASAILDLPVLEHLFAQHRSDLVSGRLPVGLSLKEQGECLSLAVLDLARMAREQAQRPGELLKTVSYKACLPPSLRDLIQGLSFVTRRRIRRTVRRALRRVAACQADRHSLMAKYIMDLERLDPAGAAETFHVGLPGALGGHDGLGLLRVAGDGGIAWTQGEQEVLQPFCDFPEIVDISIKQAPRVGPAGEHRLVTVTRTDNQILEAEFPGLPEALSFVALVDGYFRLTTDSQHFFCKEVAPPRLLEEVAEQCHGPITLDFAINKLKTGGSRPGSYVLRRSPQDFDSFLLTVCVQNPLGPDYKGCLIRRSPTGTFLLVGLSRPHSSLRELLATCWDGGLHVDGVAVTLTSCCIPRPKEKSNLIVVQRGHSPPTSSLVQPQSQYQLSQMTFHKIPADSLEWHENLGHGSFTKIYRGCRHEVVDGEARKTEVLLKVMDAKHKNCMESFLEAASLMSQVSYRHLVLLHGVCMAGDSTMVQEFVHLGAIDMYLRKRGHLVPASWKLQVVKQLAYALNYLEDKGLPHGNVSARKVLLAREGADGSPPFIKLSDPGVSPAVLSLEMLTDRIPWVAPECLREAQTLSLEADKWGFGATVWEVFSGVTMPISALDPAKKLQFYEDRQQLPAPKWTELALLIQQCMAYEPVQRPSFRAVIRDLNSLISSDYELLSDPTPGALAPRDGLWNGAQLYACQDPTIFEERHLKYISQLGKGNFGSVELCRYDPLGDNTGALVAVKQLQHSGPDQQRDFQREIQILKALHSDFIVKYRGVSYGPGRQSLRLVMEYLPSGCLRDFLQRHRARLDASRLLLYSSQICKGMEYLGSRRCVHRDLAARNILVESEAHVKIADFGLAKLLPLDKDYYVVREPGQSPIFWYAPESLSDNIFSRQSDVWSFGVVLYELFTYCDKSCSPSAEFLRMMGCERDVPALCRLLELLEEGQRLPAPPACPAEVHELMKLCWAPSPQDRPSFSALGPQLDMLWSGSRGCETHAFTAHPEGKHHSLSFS
Description: Inhibition of GST-tagged JAK3 kinase

in vitro [13] = settings: human, Caco-2; remark: listed apart in the source
Description: Ratio of permeability from apical to basolateral side over basolateral to apical side in human Caco-2 cells

Row | SMILES | IC50 (cells) [nM] | IC50 (BaF3 [5]) [nM] | IC50 (BaF3 [9]) [µM] | IC50 [11] [nM] | IC50 [12] [nM] | further results
1 | CS(=O)(=O)Nc1ccc(-c2ccnc(Nc3ccc(N4CCC(O)CC4)cc3)n2)cc1 | 1490 | 933 | 6.55 | 6 | 149 | –
2 | CS(=O)(=O)Nc1ccc(-c2ccnc(Nc3ccc(CN4CCCCC4)cc3)n2)cc1 | 735 | 580 | 0.73 | 11 | 538 | –
3 | COc1cc(-c2ccnc(Nc3ccc(N4CCOCC4)cc3)n2)ccc1C(=O)NCC#N | 245 | 205 | 0.275 | 30 | 9 | –
4 | NS(=O)(=O)c1ccc(-c2ccnc(Nc3ccc(N4CCOCC4)cc3)n2)cc1 | – | – | – | 83 | – | –
5 | N#CCNC(=O)c1cccc(-c2ccnc(Nc3ccc(N4CCOCC4)cc3)n2)c1 | > 20000 | > 20000 | > 20 | 545 | > 5000 | –
6 | N#CCNC(=O)c1ccc(-c2ccnc(Nc3ccc(CN4CCOCC4)cc3)n2)cc1 | 5070 | 2800 | 9.51 | 163 | 1450 | –
7 | Cc1nccn1Cc1ccc(-c2ccnc(Nc3ccc(N4CCOCC4)cc3)n2)cc1 | – | 3730 | – | 81 | – | –
8 | N#CCNC(=O)c1ccc(-c2ccnc(Nc3ccc(CN4CCS(=O)(=O)CC4)cc3)n2)cc1 | 7900 | 2040 | 9.97 | 52 | – | –
9 | N#CCNC(=O)c1ccc(-c2ccnc(Nc3cccc(N4CCOCC4)c3)n2)cc1 | 3770 | 2560 | 7.45 | – | 1880 | –
10 | N#CCNC(=O)c1ccc(-c2ccnc(Nc3ccc(N4CCSCC4)cc3)n2)cc1 | 1510 | 2200 | 6.25 | 69 | – | –
11 | Cc1cnc(Nc2ccc(N3CCOCC3)cc2)nc1-c1ccc(C(=O)NCC#N)cc1 | 240 | 433 | 5.96 | 8 | 85 | –
12 | N#CCC(=O)Nc1ccc(-c2ccnc(Nc3ccc(N4CCOCC4)cc3)n2)cc1 | 915 | 720 | 4.21 | – | – | –
13 | CC(C)NCC(O)COc1cccc2ccccc12 (configuration not stated) [PROPRANOLOL] | – | – | – | – | – | efflux ratio (in vitro [13]): 1.3; Papp B→A [2]: 48.8 ×10⁻⁶ cm/s; Papp A→B (in vitro [6]): 38.7 ×10⁻⁶ cm/s
14 | CCN1CCN(Cc2ccc(Nc3nccc(-c4ccc(C(=O)NCC#N)cc4)n3)cc2)CC1 | 1850 | 423 | 1.23 | 47 | 152 | –
15 | N#CCNCc1cccc(-c2ccnc(Nc3ccc(N4CCOCC4)cc3)n2)c1 | 8030 | 9820 | > 20 | 132 | > 1000 | –
16 | c1cc(-c2ccc3[nH]ccc3c2)nc(Nc2ccc(N3CCOCC3)cc2)n1 | – | 7130 | – | 33 | – | –
17 | Nc1cccc(-c2ccnc(Nc3ccc(N4CCOCC4)cc3)n2)c1 | – | 8520 | – | 322 | – | –
18 | N#CCC(=O)Nc1cccc(-c2ccnc(Nc3ccc(N4CCOCC4)cc3)n2)c1 | 18900 | 10300 | > 20 | 303 | 1760 | –
19 | CS(=O)(=O)Nc1ccc(-c2ccnc(Nc3cccc(CN4CCCC4)c3)n2)cc1 | 569 | 234 | 0.24 | 6 | 110 | –
20 | CCN(CC)CCCOc1ccc(Nc2nccc(-c3ccc(C(=O)NCC#N)cc3)n2)cc1 | 3680 | 840 | 1.1 | 166 | 362 | –
21 | Cc1cc(-c2ccnc(Nc3ccc(N4CCOCC4)cc3)n2)ccc1C(=O)NCC#N | 2040 | 2630 | 7.57 | 65 | > 1000 | –
22 | OC[C@@H](O)[C@@H](O)[C@H](O)[C@H](O)CO [MANNITOL] | – | – | – | – | – | efflux ratio (in vitro [13]): 1.5; Papp B→A [2]: 1.1 ×10⁻⁶ cm/s; Papp A→B (in vitro [6]): 0.7 ×10⁻⁶ cm/s
23 | O=C(NCc1ccco1)c1ccc(-c2ccnc(Nc3ccc(N4CCOCC4)cc3)n2)cc1 | – | 5220 | – | 202 | – | –
24 | CS(=O)(=O)Nc1ccc(-c2ccnc(Nc3ccc(N4CCOCC4)cc3)n2)cc1 | 489 | 396 | 3.95 | 4 | 351 | –
25 | CN1CCN(Cc2ccc(Nc3nccc(-c4ccc(NS(C)(=O)=O)cc4)n3)cc2)CC1 | 1550 | 1000 | 3.43 | 18 | > 1000 | –
26 | NC(=O)c1ccc(-c2ccnc(Nc3ccc(N4CCOCC4)cc3)n2)cc1 | – | 5560 | – | 326 | – | –

Now from value to compound, other results behind:

Row | IC50 (cells) [nM] | IC50 (BaF3 [5]) [nM] | IC50 (BaF3 [9]) [µM] | IC50 [11] [nM] | IC50 [12] [nM] | SMILES | further results
27 | 1250 | 798 | 2.43 | – | – | N#CCNC(=O)c1ccc(-c2ccnc(Nc3ccc(N4CCOCC4)cc3)n2)cc1 [MOMELOTINIB] | Tmax [1]: 4 h; IC50 (K562): > 20 µM; Papp B→A [2]: 27.3 ×10⁻⁶ cm/s; IC50 [3]: 232 nM; Cmax [4]: 40.4 µM; Papp A→B (in vitro [6]): 30.4 ×10⁻⁶ cm/s; CL/F [7]: 6.3 mL/min/kg; IC50 (BaF3 [8]): 1430 nM; half-life [10]: 144 min
28 | 1670 | 896 | 1.94 | 9 | > 1000 | CS(=O)(=O)Nc1ccc(-c2ccnc(Nc3ccc(CN4CCOCC4)cc3)n2)cc1 | –
29 | – | 3520 | – | 88 | – | Cc1cc(-c2ccnc(Nc3ccc(N4CCOCC4)cc3)n2)cc(C)c1O | –
30 | 5180 | 941 | 3.14 | 14 | 960 | CN1CCN(Cc2cccc(Nc3nccc(-c4ccc(NS(C)(=O)=O)cc4)n3)c2)CC1 | –
31 | 1260 | 1140 | 3.28 | 116 | 274 | N#CCNC(=O)c1ccc(-c2ccnc(Nc3ccc(N4CCOCC4)c(F)c3)n2)cc1 | –
32 | – | 3720 | 4.25 | 549 | 3910 | CC(C)(C#N)NC(=O)c1ccc(-c2ccnc(Nc3ccc(N4CCOCC4)cc3)n2)cc1 | –
33 | 4170 | 6340 | 16.9 | 298 | 1420 | CN(CC#N)C(=O)c1ccc(-c2ccnc(Nc3ccc(N4CCOCC4)cc3)n2)cc1 | –
34 | 6160 | 8500 | > 20 | – | – | COc1cnc(Nc2ccc(N3CCOCC3)cc2)nc1-c1ccc(C(=O)NCC#N)cc1 | –
35 | – | – | – | 467 | – | c1ccc(-c2ccnc(Nc3ccc(N4CCOCC4)cc3)n2)cc1 | –
36 | – | > 20000 | – | – | – | N#Cc1ccc(-c2ccnc(Nc3ccc(N4CCOCC4)cc3)n2)cc1 | –
37 | < 160 | 380 | 2.55 | 3 | 62 | COc1cc(-c2ccnc(Nc3ccc(N4CCOCC4)cc3)n2)ccc1O | –
38 | – | 3110 | – | 67 | – | CC(=O)Nc1ccc(-c2ccnc(Nc3ccc(N4CCOCC4)cc3)n2)cc1 | –
39 | – | 5620 | – | 16 | – | COc1cc(-c2ccnc(Nc3ccc(N4CCOCC4)cc3)n2)ccc1N | –
40 | 6760 | 771 | 1.94 | 12 | 636 | CS(=O)(=O)Nc1ccc(-c2ccnc(Nc3cccc(CN4CCC(O)CC4)c3)n2)cc1 | –
41 | 2660 | 812 | 1.73 | 8 | 930 | CS(=O)(=O)Nc1ccc(-c2ccnc(Nc3cccc(CN4CCOCC4)c3)n2)cc1 | –
42 | 3990 | 1240 | 1.71 | – | 2020 | N#CCNC(=O)c1ccc(-c2ccnc(Nc3ccc(N4CCOCC4)c(C(F)(F)F)c3)n2)cc1 | –
43 | 1830 | 525 | 2.05 | – | 192 | CN1CCN(c2ccc(Nc3nccc(-c4ccc(C(=O)NCC#N)cc4)n3)cc2)CC1 | –
44 | 5610 | 892 | 2.2 | 16 | 1620 | CS(=O)(=O)Nc1ccc(-c2ccnc(Nc3ccc(CN4CCC(O)CC4)cc3)n2)cc1 | –
